# Experimental data taken from PMC4657098, “A Review of the Updated Pharmacophore for the Alpha 5 GABA(A) Benzodiazepine Receptor Model” (International Journal of Medicinal Chemistry, 2015).
# Assays:
# C57BL/6J mice = type: in vivo
# Source text: Figure 3 XLi-093 (4) effects on cognition enhancement by Wenger et al. (data on statistical significance not shown, unpublished results). Effects of 4 on cognition from the mean delay achieved by C57BL/6J mice titrating delayed matching-to-position schedule.
# [1] = system: other receptors (PDSP panel); assay: Full PDSP panel receptor binding; settings: NIMH PDSP, Case Western Reserve
# 5ht1a = biological target: T1, 5ht1a (Homo sapiens, UniProt P08908); assay: PDSP receptor binding, 5ht1a; settings: PDSP primary screen at 10 µM
# T1 construct: purchased NIMH PDSP (Psychoactive Drug Screening Program, Roth lab, Case Western Reserve)
# 5ht1e = biological target: T2, 5ht1e (Homo sapiens, UniProt P28566); assay: PDSP receptor binding, 5ht1e; settings: PDSP primary screen at 10 µM
# T2 construct: purchased NIMH PDSP (Psychoactive Drug Screening Program, Roth lab, Case Western Reserve)
# 5ht2a = biological target: T3, 5ht2a (Homo sapiens, UniProt P28223); assay: PDSP receptor binding, 5ht2a; settings: PDSP primary screen at 10 µM
# T3 construct: purchased NIMH PDSP (Psychoactive Drug Screening Program, Roth lab, Case Western Reserve)
# 5ht2b = biological target: T4, 5ht2b (Homo sapiens, UniProt P41595); assay: PDSP receptor binding, 5ht2b; settings: PDSP primary screen at 10 µM
# T4 construct: purchased NIMH PDSP (Psychoactive Drug Screening Program, Roth lab, Case Western Reserve)
# 5ht2c = biological target: T5, 5ht2c (Homo sapiens, UniProt P28335); assay: PDSP receptor binding, 5ht2c; settings: PDSP primary screen at 10 µM
# T5 construct: purchased NIMH PDSP (Psychoactive Drug Screening Program, Roth lab, Case Western Reserve)
# 5ht3 = biological target: T6, 5ht3 (Homo sapiens, UniProt P46098); assay: PDSP receptor binding, 5ht3; settings: PDSP primary screen at 10 µM
# T6 construct: purchased NIMH PDSP (Psychoactive Drug Screening Program, Roth lab, Case Western Reserve)
# 5ht6 = biological target: T7, 5ht6 (Homo sapiens, UniProt P50406); assay: PDSP receptor binding, 5ht6; settings: PDSP primary screen at 10 µM
# T7 construct: purchased NIMH PDSP (Psychoactive Drug Screening Program, Roth lab, Case Western Reserve)
# 5ht7 = biological target: T8, 5ht7 (Homo sapiens, UniProt P34969); assay: PDSP receptor binding, 5ht7; settings: PDSP primary screen at 10 µM
# T8 construct: purchased NIMH PDSP (Psychoactive Drug Screening Program, Roth lab, Case Western Reserve)
# [2] = PDSP receptor binding, β1B; settings: PDSP primary screen at 10 µM
# α2A = biological target: T9, α2A (Homo sapiens, UniProt P08913); assay: PDSP receptor binding, α2A; settings: PDSP primary screen at 10 µM
# T9 construct: purchased NIMH PDSP (Psychoactive Drug Screening Program, Roth lab, Case Western Reserve)
# α2B = biological target: T10, α2B (Homo sapiens, UniProt P18089); assay: PDSP receptor binding, α2B; settings: PDSP primary screen at 10 µM
# T10 construct: purchased NIMH PDSP (Psychoactive Drug Screening Program, Roth lab, Case Western Reserve)
# α2C = biological target: T11, α2C (Homo sapiens, UniProt P18825); assay: PDSP receptor binding, α2C; settings: PDSP primary screen at 10 µM
# T11 construct: purchased NIMH PDSP (Psychoactive Drug Screening Program, Roth lab, Case Western Reserve)
# CB1 = biological target: T12, CB1 (Homo sapiens, UniProt P21554); assay: PDSP receptor binding, CB1; settings: PDSP primary screen at 10 µM
# T12 construct: purchased NIMH PDSP (Psychoactive Drug Screening Program, Roth lab, Case Western Reserve)
# D4 = biological target: T13, D4 (Homo sapiens, UniProt P21917); assay: PDSP receptor binding, D4; settings: PDSP primary screen at 10 µM
# T13 construct: purchased NIMH PDSP (Psychoactive Drug Screening Program, Roth lab, Case Western Reserve)
# D5 = biological target: T14, D5 (Homo sapiens, UniProt P21918); assay: PDSP receptor binding, D5; settings: PDSP primary screen at 10 µM
# T14 construct: purchased NIMH PDSP (Psychoactive Drug Screening Program, Roth lab, Case Western Reserve)
# DAT = biological target: T15, DAT (Homo sapiens, UniProt Q01959); assay: PDSP receptor binding, DAT; settings: PDSP primary screen at 10 µM
# T15 construct: purchased NIMH PDSP (Psychoactive Drug Screening Program, Roth lab, Case Western Reserve)
# DOR = biological target: T16, DOR (Homo sapiens, UniProt P41143); assay: PDSP receptor binding, DOR; settings: PDSP primary screen at 10 µM
# T16 construct: purchased NIMH PDSP (Psychoactive Drug Screening Program, Roth lab, Case Western Reserve)
# H1 = biological target: T17, H1 (Homo sapiens, UniProt P35367); assay: PDSP receptor binding, H1; settings: PDSP primary screen at 10 µM
# T17 construct: purchased NIMH PDSP (Psychoactive Drug Screening Program, Roth lab, Case Western Reserve)
# H4 = biological target: T18, H4 (Homo sapiens, UniProt Q9H3N8); assay: PDSP receptor binding, H4; settings: PDSP primary screen at 10 µM
# T18 construct: purchased NIMH PDSP (Psychoactive Drug Screening Program, Roth lab, Case Western Reserve)
# Imidaz oline = assay: PDSP receptor binding, Imidazoline; settings: PDSP primary screen at 10 µM
# M1 = biological target: T19, M1 (Homo sapiens, UniProt P11229); assay: PDSP receptor binding, M1; settings: PDSP primary screen at 10 µM
# T19 construct: purchased NIMH PDSP (Psychoactive Drug Screening Program, Roth lab, Case Western Reserve)
# M3 = biological target: T20, M3 (Homo sapiens, UniProt P20309); assay: PDSP receptor binding, M3; settings: PDSP primary screen at 10 µM
# T20 construct: purchased NIMH PDSP (Psychoactive Drug Screening Program, Roth lab, Case Western Reserve)
# M5 = biological target: T21, M5 (Homo sapiens, UniProt P08912); assay: PDSP receptor binding, M5; settings: PDSP primary screen at 10 µM
# T21 construct: purchased NIMH PDSP (Psychoactive Drug Screening Program, Roth lab, Case Western Reserve)
# MDR = assay: PDSP receptor binding, MDR; settings: PDSP primary screen at 10 µM
# NMDA = assay: PDSP receptor binding, NMDA; settings: PDSP primary screen at 10 µM
# SERT = biological target: T22, SERT (Homo sapiens, UniProt P31645); assay: PDSP receptor binding, SERT; settings: PDSP primary screen at 10 µM
# T22 construct: purchased NIMH PDSP (Psychoactive Drug Screening Program, Roth lab, Case Western Reserve)
# σ2 = assay: PDSP receptor binding, σ2; settings: PDSP primary screen at 10 µM
# α1β3γ2 BzR/GABA(A) = settings: Figure 1; LTK cells; read-out: Binding affinity α1; cited from earlier work
# α2β3γ2 BzR/GABA(A) = settings: Figure 1; LTK cells; read-out: Binding affinity α2; cited from earlier work
# α4β3γ2 BzR/GABA(A) = settings: Figure 1; LTK cells; read-out: Binding affinity α4; cited from earlier work
# [3] = system: GABA(A) receptor subtypes; settings: up to a concentration of 1 μM; any one of the subtypes tested; cited from earlier work
# α1β3γ2 GABAA receptor = settings: cited from earlier work
# α2β3γ2 GABAA receptor = settings: cited from earlier work
# α3β3γ2 GABAA receptor = settings: cited from earlier work
# α5β3γ2 GABAA receptor = biological target: T23, α5β3γ2 GABAA receptor (Homo sapiens, UniProt P18507+P31644); settings: cited from earlier work
# T23 construct: expressed in transfected cells; host or cells: Xenopus oocytes
# [4] = system: Bz BS of GABA(A) receptors; settings: Supplement Table 1; cited from earlier work
# α2β3γ2 GABAA/BzR = α2β3γ2 GABAA/BzR (Homo sapiens, UniProt P18507+P47869); assay: Competition binding to HEK cell membranes, α2β3γ2; design: expressed in transfected cells; settings: Ki α2
# α3β3γ2 GABAA/BzR = α3β3γ2 GABAA/BzR (Homo sapiens, UniProt P18507+P34903); assay: Competition binding to HEK cell membranes, α3β3γ2; design: expressed in transfected cells; settings: Ki α3
# α6β3γ2 GABAA/BzR = α6β3γ2 GABAA/BzR (Homo sapiens, UniProt P18507+Q16445); assay: Competition binding to HEK cell membranes, α6β3γ2; design: expressed in transfected cells; settings: Ki α6
smiles,measurement,setting,value
"C#Cc1ccc2c(c1)C(=O)N(C)Cc1c(C(=O)OCCCOC(=O)c3ncn4c3CN(C)C(=O)c3cc(C#C)ccc3-4)ncn1-2 [XLi-093 (4), 1,3-Bis(8-acetyleno-5,6-dihydro-5-methyl-6-oxo-4H-imidazo[1,5a][1,4]benzodiazepine-3-carboxy) propyl diester]",performance (mean delay achieved),"C57BL/6J mice; C57BL/6J mice, preliminary data, unpublished results (Wenger et al.)",enhances performance
same,crossing of the blood brain barrier,C57BL/6J mice; inferred from the cognition effect in mice,does cross the blood brain barrier
same,full panel receptor binding,[1],do not bind to other receptors at levels of concern
same,5ht1a binding,5ht1a,∗ (“∗” indicates “primary missed” (<50% inhibition at 10 µM))
same,5ht1e binding,5ht1e,∗ (“∗” indicates “primary missed” (<50% inhibition at 10 µM))
same,5ht2a binding,5ht2a,∗ (“∗” indicates “primary missed” (<50% inhibition at 10 µM))
same,5ht2b binding,5ht2b,∗ (“∗” indicates “primary missed” (<50% inhibition at 10 µM))
same,5ht2c binding,5ht2c,∗ (“∗” indicates “primary missed” (<50% inhibition at 10 µM))
same,5ht3 binding,5ht3,∗ (“∗” indicates “primary missed” (<50% inhibition at 10 µM))
same,5ht6 binding,5ht6,∗ (“∗” indicates “primary missed” (<50% inhibition at 10 µM))
same,5ht7 binding,5ht7,∗ (“∗” indicates “primary missed” (<50% inhibition at 10 µM))
same,β1B binding,[2],∗ (“∗” indicates “primary missed” (<50% inhibition at 10 µM))
same,α2A binding,α2A,∗ (“∗” indicates “primary missed” (<50% inhibition at 10 µM))
same,α2B binding,α2B,∗ (“∗” indicates “primary missed” (<50% inhibition at 10 µM))
same,α2C binding,α2C,∗ (“∗” indicates “primary missed” (<50% inhibition at 10 µM))
same,CB1 binding,CB1,∗ (“∗” indicates “primary missed” (<50% inhibition at 10 µM))
same,D4 binding,D4,∗ (“∗” indicates “primary missed” (<50% inhibition at 10 µM))
same,D5 binding,D5,∗ (“∗” indicates “primary missed” (<50% inhibition at 10 µM))
same,DAT binding,DAT,∗ (“∗” indicates “primary missed” (<50% inhibition at 10 µM))
same,DOR binding,DOR,∗ (“∗” indicates “primary missed” (<50% inhibition at 10 µM))
same,H1 binding,H1,∗ (“∗” indicates “primary missed” (<50% inhibition at 10 µM))
same,H4 binding,H4,∗ (“∗” indicates “primary missed” (<50% inhibition at 10 µM))
same,Imidaz oline binding,Imidaz oline,∗ (“∗” indicates “primary missed” (<50% inhibition at 10 µM))
same,M1 binding,M1,∗ (“∗” indicates “primary missed” (<50% inhibition at 10 µM))
same,M3 binding,M3,∗ (“∗” indicates “primary missed” (<50% inhibition at 10 µM))
same,M5 binding,M5,∗ (“∗” indicates “primary missed” (<50% inhibition at 10 µM))
same,MDR binding,MDR,∗ (“∗” indicates “primary missed” (<50% inhibition at 10 µM))
same,NMDA binding,NMDA,∗ (“∗” indicates “primary missed” (<50% inhibition at 10 µM))
same,SERT binding,SERT,∗ (“∗” indicates “primary missed” (<50% inhibition at 10 µM))
same,σ2 binding,σ2,∗ (“∗” indicates “primary missed” (<50% inhibition at 10 µM))
same,Ki,α1β3γ2 BzR/GABA(A),> 1000 nM
same,Ki,α2β3γ2 BzR/GABA(A),> 1000 nM
same,Ki,α4β3γ2 BzR/GABA(A),1550 nM
same,triggering of chloride flux,[3],did not trigger chloride flux
same,"modulation of GABA induced chloride flux, α1β3γ2",α1β3γ2 GABAA receptor; at 1 μM,did not modulate
same,"influence on benzodiazepine (Valium) stimulation of GABA-induced current, α1β3γ2",α1β3γ2 GABAA receptor,barely influenced
same,"modulation of GABA induced chloride flux, α2β3γ2",α2β3γ2 GABAA receptor; at 1 μM,did not modulate
same,"influence on benzodiazepine (Valium) stimulation of GABA-induced current, α2β3γ2",α2β3γ2 GABAA receptor,barely influenced
same,"modulation of GABA induced chloride flux, α3β3γ2",α3β3γ2 GABAA receptor; at 1 μM,did not modulate
same,"influence on benzodiazepine (Valium) stimulation of GABA-induced current, α3β3γ2",α3β3γ2 GABAA receptor,barely influenced
same,"modulation of GABA induced chloride flux, α5β3γ2",α5β3γ2 GABAA receptor; at 1 μM,very slightly inhibited
same,"influence on benzodiazepine (Valium) stimulation of GABA-induced current, α5β3γ2",α5β3γ2 GABAA receptor,shifted the diazepam dose response curve to the right
same,inhibition of diazepam-stimulated currents in α5β3γ2 receptors,α5β3γ2 GABAA receptor,dose dependently and completely inhibit
same,modulation,[4],antagonist
same,Ki,α2β3γ2 GABAA/BzR,> 1000 nM
same,Ki,α3β3γ2 GABAA/BzR,858 nM
same,Ki,α6β3γ2 GABAA/BzR,> 2000 nM
